Measurements reported in the OligoGym collection.
“And” between values parts separate entries of the source, which are not always exact repeats. Equal values may be shown once. After the bases stand the sugars from the 5' end (letter, count) and the backbone: PS all phosphorothioate, else s phosphorothioate and o phosphodiester by linkage. Methylation of C is not given here. e = 2'-O-(2-methoxyethyl) (MOE); k = constrained ethyl (cEt); d = 2'-deoxy (DNA)

Target: SOD1
Details: ASO

AAACTATACAAATCTTC (sugars e3 k2 d7 k2 e3, PS)
target mRNA inhibition (HepG2, 3 µM): 26%

AAATCTTCCAAGTGATC (sugars e2 k2 d9 k2 e2, PS)
target mRNA inhibition (HepG2, 5 µM): 48%

AAATTCTGACAAGTTTA (sugars e3 k2 d7 k2 e3, PS)
target mRNA inhibition (HepG2, 3 µM): 21%

AACATGGAATCCATGCA (sugars e3 k2 d7 k2 e3, PS)
target mRNA inhibition (HepG2, 3 µM): 10%

AAGTCTCCAACATGCCTCTC (sugars e5 d10 e5, PS)
target mRNA inhibition (HepG2, 5 µM): 20% and 6%

AAGTGCCATACAGGGTT (sugars e2 k2 d8 k2 e3, PS)
target mRNA inhibition (HepG2, 5 µM): 15%

AATACCCATCTGTGATT (sugars e3 k2 d7 k2 e3, PS)
target mRNA inhibition (HepG2, 3 µM): 7%

AATCAGTTTCTCACTAC (sugars e2 k2 d8 k2 e3, PS)
target mRNA inhibition (HepG2, 5 µM): 34%

AATCCATGCAGGCCTTC (sugars e3 k2 d7 k2 e3, PS)
target mRNA inhibition (HepG2, 3 µM): 13%

AATCTTCCAAGTGATCA (sugars e3 k2 d7 k2 e3, PS)
target mRNA inhibition (HepG2, 3 µM): 23%

AATGTTTATCAGGATA (sugars ekddddddddekekee, linkages s1 o1 s8 o3 s2)
target mRNA inhibition (A431, 0.12 µM): 10% | target mRNA inhibition (A431, 0.6 µM): 30% | target mRNA inhibition (A431, 3 µM): 51% | target mRNA inhibition (A431, 15 µM): 72%

AATGTTTATCAGGATAC (sugars e2 k2 d8 k2 e3, PS)
target mRNA inhibition (HepG2, 0.1875 µM): 51% | target mRNA inhibition (HepG2, 0.75 µM): 79% | target mRNA inhibition (HepG2, 3 µM): 92% | target mRNA inhibition (HepG2, 4 µM): 89% | target mRNA inhibition (HepG2, 12 µM): 96%

AATGTTTATCAGGATAC (sugars e2 k2 d9 k2 e2, PS)
target mRNA inhibition (HepG2, 0.1875 µM): 43% | target mRNA inhibition (HepG2, 0.75 µM): 75% | target mRNA inhibition (HepG2, 3 µM): 91% | target mRNA inhibition (HepG2, 4 µM): 90% | target mRNA inhibition (HepG2, 12 µM): 97%

AATGTTTATCAGGATACATT (sugars e5 d10 e5, PS)
target mRNA inhibition (HepG2, 5 µM): 54%

AATGTTTATTGGGCGAT (sugars e2 k2 d8 k2 e3, PS)
target mRNA inhibition (HepG2, 4 µM): 61%

AATGTTTATTGGGCGAT (sugars e2 k2 d9 k2 e2, PS)
target mRNA inhibition (HepG2, 4 µM): 64%

AATTACACCACAAGCCA (sugars e2 k2 d9 k2 e2, PS)
target mRNA inhibition (HepG2, 4 µM): 56%

ACAAGTTTAATACCCAT (sugars e2 k2 d8 k2 e3, PS)
target mRNA inhibition (HepG2, 5 µM): 58%

ACACCACAAGCCAAACG (sugars e2 k2 d8 k2 e3, PS)
target mRNA inhibition (HepG2, 4 µM): 27%

ACACCACAAGCCAAACG (sugars e2 k2 d9 k2 e2, PS)
target mRNA inhibition (HepG2, 4 µM): 45%

ACACTTTTAAGATTACAGTG (sugars e5 d10 e5, PS)
target mRNA inhibition (HepG2, 5 µM): 15%

ACAGCTAGCAGGATAAC (sugars e3 k2 d7 k2 e3, PS)
target mRNA inhibition (HepG2, 3 µM): 20%

ACAGGGTTTTTATTCAC (sugars e2 k2 d9 k2 e2, PS)
target mRNA inhibition (HepG2, 5 µM): 47%

ACAGTGTTTAATGTTT (sugars kekeddddddddekek, linkages s1 o3 s8 o1 s2)
target mRNA inhibition (A431, 0.12 µM): 0% | target mRNA inhibition (A431, 0.6 µM): 0% | target mRNA inhibition (A431, 3 µM): 0% | target mRNA inhibition (A431, 15 µM): 6% | target mRNA inhibition (HepG2, 0.222 µM): 55% | target mRNA inhibition (HepG2, 0.667 µM): 68% | target mRNA inhibition (HepG2, 2 µM): 78% | target mRNA inhibition (HepG2, 6 µM): 88%

ACAGTGTTTAATGTTTA (sugars e2 k2 d8 k2 e3, linkages s1 o2 s9 o2 s2)
target mRNA inhibition (A431, 0.12 µM): 17% | target mRNA inhibition (A431, 0.6 µM): 8% | target mRNA inhibition (A431, 3 µM): 26% | target mRNA inhibition (A431, 15 µM): 37% | target mRNA inhibition (HepG2, 0.222 µM): 61% | target mRNA inhibition (HepG2, 0.667 µM): 73% | target mRNA inhibition (HepG2, 2 µM): 91% | target mRNA inhibition (HepG2, 6 µM): 88%

ACATCCAAGGGAATGTT (sugars e3 k2 d7 k2 e3, PS)
target mRNA inhibition (HepG2, 3 µM): 30%

ACATTTCTACAGCTAG (sugars ekddddddddekekee, linkages s1 o1 s8 o3 s2)
target mRNA inhibition (A431, 0.12 µM): 1% | target mRNA inhibition (A431, 0.6 µM): 27% | target mRNA inhibition (A431, 3 µM): 32% | target mRNA inhibition (A431, 15 µM): 47%

ACCACAAGCCAAACGACTTC (sugars e5 d10 e5, PS)
target mRNA inhibition (HepG2, 5 µM): 28%

ACCTTCACTGGTCCATT (sugars e3 k2 d7 k2 e3, PS)
target mRNA inhibition (HepG2, 3 µM): 44%

ACTGGGCCGTCGCCCTTCAG (sugars e5 d10 e5, PS)
target mRNA inhibition (HepG2, 4 µM): 26%

ACTTTATAGGCCAGACCTCC (sugars e5 d10 e5, PS)
target mRNA inhibition (HepG2, 4 µM): 64%

ACTTTCCTTCTGCTCGA (sugars e3 k2 d7 k2 e3, PS)
target mRNA inhibition (HepG2, 3 µM): 0%

ACTTTCTTCATTTCCAC (sugars e3 k2 d7 k2 e3, PS)
target mRNA inhibition (HepG2, 3 µM): 15%
